Tested on: ATF4 luciferase reporter in HEK293T cells
Test: ATF4-Luc assay (ATF4 luciferase reporter, tunicamycin-treated HEK293T cells)
Format: cell-based, human
Details: Homo sapiens, HEK-293T; HEK293T cells carrying the ATF4 luciferase reporter, 1 μg/mL tunicamycin, 7 hours

Question: For O=C(COc1ccc(Cl)c(F)c1)NC12CC(NC(=O)COc3ccnn(CC(F)(F)F)c3=O)(C1)C2 [Compound 309, 2-(4-chloro-3-fluorophenoxy)-N-[3-(2-{[3-oxo-2-(2,2,2-trifluoroethyl)-2,3-dihydropyridazin-4-yl]oxy}acetamido)bicyclo[1.1.1]pentan-1-yl]acetamide], which EC50 is on record?
Answer: Its EC50 is 0.05 to 0.25 µM.

Question: O=C(COc1ccc(Cl)c(F)c1)NC12CC(NC(=O)COc3cnn(CC(F)(F)F)c(=O)c3)(C1)C2 [Compound 310, 2-(4-chloro-3-fluorophenoxy)-N-[3-(2-{[6-oxo-1-(2,2,2-trifluoroethyl)-1,6-dihydropyridazin-4-yl]oxy}acetamido)bicyclo[1.1.1]pentan-1-yl]acetamide] was tested. Which EC50 did it give?
Answer: The EC50 was 0.05 to 0.25 µM.

Question: With O=C(COc1ccc(Cl)c(F)c1)NC12CCC(NC(=O)COc3ccc(C4CC4)nc3)(CC1)C(O)C2 (stereo not drawn) [Compound 311, 2-(4-chloro-3-fluorophenoxy)-N-(4-{2-[(6-cyclopropylpyridin-3-yl)oxy]acetamido}-3-hydroxybicyclo[2.2.2]octan-1-yl)acetamide] as the compound, how does the EC50 read?
Answer: Its EC50 is under 0.01 µM.

Question: How did the EC50 turn out when O=C(COc1ccc(Cl)c(F)c1)NC12CC(NC(=O)C(=O)Cc3ccc(Cl)cc3)(C1)C2 [Compound 312, N-{3-[2-(4-chloro-3-fluorophenoxy)acetamido]bicyclo[1.1.1]pentan-1-yl}-3-(4-chlorophenyl)-2-oxopropanamide] was run?
Answer: Its EC50 is 0.05 to 0.25 µM.

Question: O=C(COc1ccc(C(F)(F)F)nc1)NC12CCC(NC(=O)COc3ccc(Cl)c(F)c3)(CC1)C(O)C2 (stereo not drawn) [Compound 313, 2-(4-chloro-3-fluorophenoxy)-N-[2-hydroxy-4-(2-{[6-(trifluoromethyl)pyridin-3-yl]oxy}acetamido)bicyclo[2.2.2]octan-1-yl]acetamide] was tested. Which EC50 did it give?
Answer: The EC50 was under 0.01 µM.

Question: Which EC50 does the source give for COc1ccc(CNC23CCC(NC(=O)COc4ccc(Cl)c(F)c4)(CC2)C(O)C3)cc1 (stereo not drawn) [Compound 314, 2-(4-chloro-3-fluorophenoxy)-N-(2-hydroxy-4-{[(4-methoxyphenyl)methyl]amino}bicyclo[2.2.2]octan-1-yl)acetamide] here?
Answer: Its EC50 is over 2 µM.

Question: With O=C(COc1ccc(Cl)c(F)c1)NC12CC(NC(=O)[C@H](O)c3ccc(Cl)cc3)(C1)C2 [Compound 315, (2R)—N-{3-[2-(4-chloro-3-fluorophenoxy)acetamido]bicyclo[1.1.1]pentan-1-yl}-2-(4-chlorophenyl)-2-hydroxyacetamide] as the compound, how does the EC50 read?
Answer: Its EC50 is 0.5 to 2 µM.

Question: With O=C(COc1ccc(Cl)c(F)c1)NC12CCC(NC(=O)COc3ccnn(CC(F)(F)F)c3=O)(CC1)C(=O)C2 [Compound 316, 2-(4-chloro-3-fluorophenoxy)-N-[3-oxo-4-(2-{[3-oxo-2-(2,2,2-trifluoroethyl)-2,3-dihydropyridazin-4-yl]oxy}acetamido)bicyclo[2.2.2]octan-1-yl]acetamide] as the compound, how does the EC50 read?
Answer: Its EC50 is 0.5 to 2 µM.

Question: Which EC50 does the source give for O=C(COc1ccc(Cl)c(F)c1)NC12CCC(NC(=O)COc3cnn(CC(F)(F)F)c(=O)c3)(CC1)C(=O)C2 [Compound 317, 2-(4-chloro-3-fluorophenoxy)-N-[3-oxo-4-(2-{[6-oxo-1-(2,2,2-trifluoroethyl)-1,6-dihydropyridazin-4-yl]oxy}acetamido)bicyclo[2.2.2]octan-1-yl]acetamide] here?
Answer: The EC50 was over 2 µM.

Question: For CN(C)c1ccc(CC(=O)NC23CCC(NC(=O)COc4ccc(Cl)c(F)c4)(CC2)CC3O)cc1 (stereo not drawn) [Compound 320, 2-(4-chloro-3-fluorophenoxy)-N-(4-{2-[4-(dimethylamino)phenyl]acetamido}-3-hydroxybicyclo[2.2.2]octan-1-yl)acetamide], which EC50 is on record?
Answer: The EC50 was 0.5 to 2 µM.

Question: O=C(COc1ccc(Cl)c(F)c1)NC12CCC(NC(=O)Cc3cccc(C(F)(F)F)c3)(CC1)C(O)C2 (stereo not drawn) [Compound 321, 2-(4-chloro-3-fluorophenoxy)-N-(3-hydroxy-4-{2-[3-(trifluoromethyl)phenyl]acetamido}bicyclo[2.2.2]octan-1-yl)acetamide] was tested. Which EC50 did it give?
Answer: The EC50 was 0.5 to 2 µM.

Question: How did the EC50 turn out when O=C(COc1ccc(Cl)c(F)c1)NC12CCC(NC(=O)Cc3ccc(C(F)(F)F)cc3)(CC1)C(O)C2 (stereo not drawn) [Compound 322, 2-(4-chloro-3-fluorophenoxy)-N-(3-hydroxy-4-{2-[4-(trifluoromethyl)phenyl]acetamido}bicyclo[2.2.2]octan-1-yl)acetamide] was run?
Answer: The EC50 was 0.05 to 0.25 µM.

Question: How did the EC50 turn out when O=C(COc1ccc(Cl)c(F)c1)NC12CCC(NC(=O)Cc3ccc4c(c3)OCO4)(CC1)C(O)C2 (stereo not drawn) [Compound 323, 2-(2H-1,3-benzodioxol-5-yl)-N-{4-[2-(4-chloro-3-fluorophenoxy)acetamido]-2-hydroxybicyclo[2.2.2]octan-1-yl}acetamide] was run?
Answer: The EC50 was over 2 µM.

Question: How did the EC50 turn out when O=C(COc1ccc(Cl)c(F)c1)NC12CCC(NC(=O)Cc3cccnc3)(CC1)C(O)C2 (stereo not drawn) [Compound 324, 2-(4-chloro-3-fluorophenoxy)-N-{3-hydroxy-4-[2-(pyridin-3-yl)acetamido]bicyclo[2.2.2]octan-1-yl}acetamide] was run?
Answer: Its EC50 is over 2 µM.

Question: With CS(=O)(=O)c1ccc(CC(=O)NC23CCC(NC(=O)COc4ccc(Cl)c(F)c4)(CC2)CC3O)cc1 (stereo not drawn) [Compound 325, 2-(4-chloro-3-fluorophenoxy)-N-(3-hydroxy-4-{2-[4-(methanesulfonyl)phenyl]acetamido}bicyclo[2.2.2]octan-1-yl)acetamide] as the compound, how does the EC50 read?
Answer: Its EC50 is over 2 µM.

Question: How did the EC50 turn out when O=C(COc1ccc(Cl)c(F)c1)NC12CCC(NC(=O)Cc3ccc(OC(F)(F)F)cc3)(CC1)C(O)C2 (stereo not drawn) [Compound 326, 2-(4-chloro-3-fluorophenoxy)-N-(3-hydroxy-4-{2-[4-(trifluoromethoxy)phenyl]acetamido}bicyclo[2.2.2]octan-1-yl)acetamide] was run?
Answer: Its EC50 is 0.05 to 0.25 µM.

Question: Which EC50 does the source give for O=C(COc1ccc(Cl)c(F)c1)NC12CCC(NC(=O)Cc3cccc(OC(F)(F)F)c3)(CC1)C(O)C2 (stereo not drawn) [Compound 327, 2-(4-chloro-3-fluorophenoxy)-N-(3-hydroxy-4-{2-[3-(trifluoromethoxy)phenyl]acetamido}bicyclo[2.2.2]octan-1-yl)acetamide] here?
Answer: The EC50 was over 2 µM.

Question: Which EC50 does the source give for O=C(COc1ccc(Cl)c(F)c1)NC12CCC(NC(=O)Cc3ccncc3)(CC1)C(O)C2 (stereo not drawn) [Compound 328, 2-(4-chloro-3-fluorophenoxy)-N-{3-hydroxy-4-[2-(pyridin-4-yl)acetamido]bicyclo[2.2.2]octan-1-yl}acetamide] here?
Answer: The EC50 was over 2 µM.

Question: Which EC50 does the source give for O=C(COc1ccc(F)c(F)c1)NC12CCC(NC(=O)COc3ccc(Cl)c(F)c3)(CC1)C(O)C2 (stereo not drawn) [Compound 329, 2-(4-chloro-3-fluorophenoxy)-N-{4-[2-(3,4-difluorophenoxy)acetamido]-2-hydroxybicyclo[2.2.2]octan-1-yl}acetamide] here?
Answer: Its EC50 is under 0.01 µM.

Question: With O=C(COc1ccc(F)cc1)NC12CCC(NC(=O)COc3ccc(Cl)c(F)c3)(CC1)C(O)C2 (stereo not drawn) [Compound 330, 2-(4-chloro-3-fluorophenoxy)-N-{4-[2-(4-fluorophenoxy)acetamido]-2-hydroxybicyclo[2.2.2]octan-1-yl}acetamide] as the compound, how does the EC50 read?
Answer: The EC50 was under 0.01 µM.

Question: For O=C(COc1ccc(Cl)c(F)c1)NC12CCC(NCCOc3ccc(F)cc3)(CC1)C(O)C2 (stereo not drawn) [Compound 331, 2-(4-chloro-3-fluorophenoxy)-N-(4-{[2-(4-fluorophenoxy)ethyl]amino}-3-hydroxybicyclo[2.2.2]octan-1-yl)acetamide], which EC50 is on record?
Answer: The EC50 was under 0.01 µM.

Question: With O=C(COc1ccc(S(F)(F)(F)(F)F)nc1)NC12CC(NC(=O)COc3ccc(Cl)c(F)c3)(C1)C2 [Compound 332, 2-(4-chloro-3-fluorophenoxy)-N-[3-(2-{[6-(pentafluoro-X 6-sulfanyl)pyridin-3-yl]oxy}acetamido)bicyclo[1.1.1]pentan-1-yl]acetamide] as the compound, how does the EC50 read?
Answer: Its EC50 is 0.01 to 0.05 µM.

Question: Which EC50 does the source give for O=C(COc1ccc(Cl)c(F)c1)NC12CCC(NC(=O)COc3ccnn(CC(F)(F)F)c3=O)(CC1)C(O)C2 (stereo not drawn) [Compound 333, 2-(4-chloro-3-fluorophenoxy)-N-[3-hydroxy-4-(2-{[3-oxo-2-(2,2,2-trifluoroethyl)-2,3-dihydropyridazin-4-yl]oxy}acetamido)bicyclo[2.2.2]octan-1-yl]acetamide] here?
Answer: The EC50 was 0.25 to 0.5 µM.

Question: For O=C(COc1ccc(Cl)c(F)c1)NC12CCC(NC(=O)COc3cnn(CC(F)(F)F)c(=O)c3)(CC1)C(O)C2 (stereo not drawn) [Compound 334, 2-(4-chloro-3-fluorophenoxy)-N-[3-hydroxy-4-(2-{[6-oxo-1-(2,2,2-trifluoroethyl)-1,6-dihydropyridazin-4-yl]oxy}acetamido)bicyclo[2.2.2]octan-1-yl]acetamide], which EC50 is on record?
Answer: The EC50 was 0.5 to 2 µM.

Question: O=C(COc1ccc(Cl)c(F)c1)NC12CCC(NCCOc3ccc(Cl)c(Cl)c3)(CC1)C(O)C2 (stereo not drawn) [Compound 335, 2-(4-chloro-3-fluorophenoxy)-N-(4-{[2-(3,4-dichlorophenoxy)ethyl]amino}-3-hydroxybicyclo[2.2.2]octan-1-yl)acetamide] was tested. Which EC50 did it give?
Answer: The EC50 was under 0.01 µM.

Question: With O=C(COc1ccc(Cl)c(F)c1)NC12CCC(NCCOc3ccc(Cl)cc3)(CC1)C(O)C2 (stereo not drawn) [Compound 336, 2-(4-chloro-3-fluorophenoxy)-N-(4-{[2-(4-chlorophenoxy)ethyl]amino}-3-hydroxybicyclo[2.2.2]octan-1-yl)acetamide] as the compound, how does the EC50 read?
Answer: Its EC50 is under 0.01 µM.

Question: For CC1(O)CC2(NC(=O)COc3ccc(Cl)c(F)c3)CCC1(NC(=O)COc1ccc(C(F)(F)F)nc1)CC2 (stereo not drawn) [Compound 338, 2-(4-chloro-3-fluorophenoxy)-N-[3-hydroxy-3-methyl-4-(2-{[6-(trifluoromethyl)pyridin-3-yl]oxy}acetamido)bicyclo[2.2.2]octan-1-yl]acetamide], which EC50 is on record?
Answer: Its EC50 is 0.01 to 0.05 µM.

Question: Which EC50 does the source give for CC1(O)CC2(NC(=O)COc3ccc(Cl)c(F)c3)CCC1(NC(=O)COc1ccc(Cl)c(F)c1)CC2 (stereo not drawn) [Compound 339, N,N′-(2-hydroxy-2-methylbicyclo[2.2.2]octane-1,4-diyl)bis[2-(4-chloro-3-fluorophenoxy)acetamide]] here?
Answer: The EC50 was under 0.01 µM.

Question: How did the EC50 turn out when O=C(Cc1ccc(OC(F)(F)F)cc1)NC12CCC(NC(=O)COc3ccc(Cl)c(F)c3)(CC1)C(O)C2 (stereo not drawn) [Compound 340, 2-(4-chloro-3-fluorophenoxy)-N-(2-hydroxy-4-{2-[4-(trifluoromethoxy)phenyl]acetamido}bicyclo[2.2.2]octan-1-yl)acetamide] was run?
Answer: Its EC50 is 0.05 to 0.25 µM.

Question: O=C(COc1ccc(Cl)c(F)c1)NC12CC(NC(=O)Cc3ccc(C(F)(F)F)cc3)(C1)C2 [Compound 341, 2-(4-chloro-3-fluorophenoxy)-N-(3-{2-[4-(trifluoromethyl)phenyl]acetamido}bicyclo[1.1.1]pentan-1-yl)acetamide] was tested. Which EC50 did it give?
Answer: The EC50 was 0.05 to 0.25 µM.
